Source: ChEMBL document CHEMBL3132769, “Fragment growing to retain or alter the selectivity of anchored kinase hinge-binding fragments” (Medchemcomm, 2014)

What was measured:
[1] = target: Fibroblast growth factor receptor 3 (Homo sapiens) (UniProt P22607); assay: Inhibition of human FGFR3 catalytic domain expressed in baculovirus assessed as substrate phosphorylation using fluorescence-labelled peptides as substrate at 0.06 uM after 90 mins by microfluidic peptide phosphorylation assay
[2] = target: MAP kinase-activated protein kinase 3 (Homo sapiens) (UniProt Q16644); assay: Inhibition of human full length MAPKAPK3 expressed in Escherichia coli cell assessed as substrate phosphorylation using fluorescence-labelled peptides as substrate at 420 uM after 90 mins by microfluidic peptide phosphorylation assay
Chain of MAP kinase-activated protein kinase 3 (Homo sapiens) (Q16644 whole entry, looked up, the tested form may be a part): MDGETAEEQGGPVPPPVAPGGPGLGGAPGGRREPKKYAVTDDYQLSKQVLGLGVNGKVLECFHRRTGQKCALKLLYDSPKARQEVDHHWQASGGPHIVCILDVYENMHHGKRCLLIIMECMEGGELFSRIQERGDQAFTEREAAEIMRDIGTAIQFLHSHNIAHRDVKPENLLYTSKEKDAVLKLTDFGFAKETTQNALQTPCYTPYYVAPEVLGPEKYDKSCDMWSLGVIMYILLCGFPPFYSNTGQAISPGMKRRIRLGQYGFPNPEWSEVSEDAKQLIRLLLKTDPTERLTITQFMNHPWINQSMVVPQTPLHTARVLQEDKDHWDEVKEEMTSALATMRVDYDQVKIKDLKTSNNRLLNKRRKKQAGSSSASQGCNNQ

[3] = target: T1, Protein kinase C epsilon type (Homo sapiens) (UniProt Q02156); assay: Inhibition of human truncated PKC epsilon expressed in baculovirus assessed as substrate phosphorylation using fluorescence-labelled peptides as substrate at […] after 90 mins by microfluidic peptide phosphorylation assay
T1 sequence (whole entry): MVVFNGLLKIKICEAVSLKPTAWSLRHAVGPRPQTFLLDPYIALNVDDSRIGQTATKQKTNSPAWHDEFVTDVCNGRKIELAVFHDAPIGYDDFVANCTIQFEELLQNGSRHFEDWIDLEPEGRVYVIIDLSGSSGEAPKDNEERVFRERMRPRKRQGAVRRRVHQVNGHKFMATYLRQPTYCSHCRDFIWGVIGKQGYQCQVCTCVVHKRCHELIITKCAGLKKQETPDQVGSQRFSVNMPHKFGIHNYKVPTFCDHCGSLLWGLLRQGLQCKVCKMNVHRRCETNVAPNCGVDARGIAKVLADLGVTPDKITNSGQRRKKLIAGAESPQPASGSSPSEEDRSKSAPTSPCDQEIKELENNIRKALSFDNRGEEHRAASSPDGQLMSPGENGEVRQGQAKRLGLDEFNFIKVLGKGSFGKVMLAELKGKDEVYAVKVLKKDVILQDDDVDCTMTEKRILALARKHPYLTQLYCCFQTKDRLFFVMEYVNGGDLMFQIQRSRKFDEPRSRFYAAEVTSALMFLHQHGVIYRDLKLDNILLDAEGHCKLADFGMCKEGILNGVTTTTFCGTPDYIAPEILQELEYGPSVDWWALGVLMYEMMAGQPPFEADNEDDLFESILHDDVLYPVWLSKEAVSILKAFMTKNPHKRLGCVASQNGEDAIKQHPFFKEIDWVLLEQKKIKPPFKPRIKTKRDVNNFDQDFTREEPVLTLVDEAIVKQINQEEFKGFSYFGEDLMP

[4] = target: T2, Aurora kinase C (Homo sapiens) (UniProt Q9UQB9); assay: Inhibition of human full length AurC expressed in baculovirus assessed as substrate phosphorylation using fluorescence-labelled peptides as substrate at […] after 90 mins by microfluidic peptide phosphorylation assay
T2 sequence (whole entry): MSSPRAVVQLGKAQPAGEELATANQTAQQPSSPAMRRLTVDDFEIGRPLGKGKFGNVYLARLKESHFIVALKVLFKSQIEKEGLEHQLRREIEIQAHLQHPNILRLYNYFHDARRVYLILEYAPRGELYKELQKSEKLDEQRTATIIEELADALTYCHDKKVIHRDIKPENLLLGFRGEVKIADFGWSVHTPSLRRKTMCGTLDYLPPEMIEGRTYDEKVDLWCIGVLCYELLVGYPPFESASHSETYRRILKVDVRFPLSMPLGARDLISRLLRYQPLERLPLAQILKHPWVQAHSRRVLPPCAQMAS

[5] = target: T3, Testis-specific serine/threonine-protein kinase 2 (Homo sapiens) (UniProt Q96PF2); assay: Inhibition of human full length TSSK2 expressed in baculovirus assessed as substrate phosphorylation using fluorescence-labelled peptides as substrate at 70 uM after 90 mins by microfluidic peptide phosphorylation assay
T3 sequence (whole entry): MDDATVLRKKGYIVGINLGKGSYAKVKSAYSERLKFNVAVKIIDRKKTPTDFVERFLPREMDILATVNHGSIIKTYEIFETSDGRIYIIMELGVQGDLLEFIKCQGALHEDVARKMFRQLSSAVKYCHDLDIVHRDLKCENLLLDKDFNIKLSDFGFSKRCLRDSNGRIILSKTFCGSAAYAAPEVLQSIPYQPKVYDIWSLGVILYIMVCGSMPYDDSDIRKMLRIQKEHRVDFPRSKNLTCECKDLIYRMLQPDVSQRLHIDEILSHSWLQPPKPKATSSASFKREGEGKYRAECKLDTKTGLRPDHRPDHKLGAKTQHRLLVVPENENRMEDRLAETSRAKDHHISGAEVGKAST

[6] = target: T4, MAP kinase-activated protein kinase 5 (Homo sapiens) (UniProt Q8IW41); assay: Inhibition of human full length PRAK expressed in baculovirus assessed as substrate phosphorylation using fluorescence-labelled peptides as substrate at 70 uM after 90 mins by microfluidic peptide phosphorylation assay
T4 sequence (whole entry): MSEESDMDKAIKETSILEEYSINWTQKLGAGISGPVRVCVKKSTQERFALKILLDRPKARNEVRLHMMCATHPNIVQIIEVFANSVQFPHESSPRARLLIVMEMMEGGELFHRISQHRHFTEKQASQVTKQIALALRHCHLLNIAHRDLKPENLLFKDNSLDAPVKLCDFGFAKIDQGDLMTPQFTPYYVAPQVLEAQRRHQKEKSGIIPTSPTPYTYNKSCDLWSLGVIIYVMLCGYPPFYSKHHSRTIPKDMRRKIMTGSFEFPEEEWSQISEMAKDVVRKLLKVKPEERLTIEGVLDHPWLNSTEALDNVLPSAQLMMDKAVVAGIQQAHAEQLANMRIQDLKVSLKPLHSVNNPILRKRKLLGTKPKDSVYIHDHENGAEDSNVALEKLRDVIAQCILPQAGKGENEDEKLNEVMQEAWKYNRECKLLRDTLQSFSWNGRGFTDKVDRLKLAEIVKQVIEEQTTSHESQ

[7] = target: Protein kinase C eta type (Homo sapiens) (UniProt P24723); assay: Inhibition of human truncated PKC eta expressed in baculovirus assessed as substrate phosphorylation using fluorescence-labelled peptides as substrate at 95 uM after 90 mins by microfluidic peptide phosphorylation assay
Chain of Protein kinase C eta type (Homo sapiens) (P24723 whole entry, the tested form may be a part): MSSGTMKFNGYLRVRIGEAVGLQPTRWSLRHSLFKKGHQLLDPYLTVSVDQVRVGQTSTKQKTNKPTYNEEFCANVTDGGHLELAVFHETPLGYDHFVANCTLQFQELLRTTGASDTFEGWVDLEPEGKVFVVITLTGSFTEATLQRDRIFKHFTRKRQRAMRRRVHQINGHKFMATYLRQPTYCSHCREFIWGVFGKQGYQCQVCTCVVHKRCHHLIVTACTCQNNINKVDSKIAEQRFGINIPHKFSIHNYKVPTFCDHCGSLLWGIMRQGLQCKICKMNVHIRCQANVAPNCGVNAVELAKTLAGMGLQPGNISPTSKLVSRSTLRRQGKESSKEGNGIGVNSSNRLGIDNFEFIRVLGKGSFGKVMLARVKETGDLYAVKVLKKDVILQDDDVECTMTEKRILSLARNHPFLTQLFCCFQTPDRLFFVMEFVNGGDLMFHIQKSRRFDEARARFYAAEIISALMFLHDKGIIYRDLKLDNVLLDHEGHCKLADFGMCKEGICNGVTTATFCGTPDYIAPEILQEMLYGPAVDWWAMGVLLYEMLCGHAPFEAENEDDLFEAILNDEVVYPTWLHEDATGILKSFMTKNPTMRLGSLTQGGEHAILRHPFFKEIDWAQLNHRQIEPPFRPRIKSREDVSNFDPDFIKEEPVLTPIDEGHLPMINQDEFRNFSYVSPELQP

[8] = target: T2, Aurora kinase C (Homo sapiens); assay: Inhibition of human full length AurC expressed in baculovirus assessed as substrate phosphorylation using fluorescence-labelled peptides as substrate at 2 uM after 90 mins by microfluidic peptide phosphorylation assay
[9] = target: T3, Testis-specific serine/threonine-protein kinase 2 (Homo sapiens); assay: Inhibition of human full length TSSK2 expressed in baculovirus assessed as substrate phosphorylation using fluorescence-labelled peptides as substrate at 2 uM after 90 mins by microfluidic peptide phosphorylation assay

Chain of Fibroblast growth factor receptor 3 (Homo sapiens) (P22607 23-806 limits assumed): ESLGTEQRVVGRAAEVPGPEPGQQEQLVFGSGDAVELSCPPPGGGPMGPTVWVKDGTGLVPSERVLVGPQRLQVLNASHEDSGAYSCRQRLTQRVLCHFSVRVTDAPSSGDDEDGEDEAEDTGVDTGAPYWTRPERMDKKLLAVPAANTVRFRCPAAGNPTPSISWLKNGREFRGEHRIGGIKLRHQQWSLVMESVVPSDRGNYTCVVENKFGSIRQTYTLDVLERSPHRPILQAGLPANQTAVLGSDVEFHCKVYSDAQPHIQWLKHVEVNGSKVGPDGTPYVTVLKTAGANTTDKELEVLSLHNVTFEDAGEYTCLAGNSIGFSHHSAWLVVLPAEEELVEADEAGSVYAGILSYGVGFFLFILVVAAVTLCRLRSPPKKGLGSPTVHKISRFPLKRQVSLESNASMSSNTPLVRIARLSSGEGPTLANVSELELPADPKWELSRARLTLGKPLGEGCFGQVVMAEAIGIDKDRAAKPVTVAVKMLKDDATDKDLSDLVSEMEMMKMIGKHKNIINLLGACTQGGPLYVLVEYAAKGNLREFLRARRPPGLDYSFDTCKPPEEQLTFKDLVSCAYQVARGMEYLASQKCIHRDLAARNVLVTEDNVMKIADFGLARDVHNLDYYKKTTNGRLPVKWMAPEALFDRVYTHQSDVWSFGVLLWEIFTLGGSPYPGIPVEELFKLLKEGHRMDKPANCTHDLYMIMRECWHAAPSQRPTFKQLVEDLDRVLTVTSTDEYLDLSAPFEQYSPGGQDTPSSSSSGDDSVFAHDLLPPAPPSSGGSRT

NC1(Cc2ccc(Cl)cc2)CCN(c2ncnc3[nH]ccc23)CC1
inhibition [1]: 0%

c1nc(N2CCOCC2)c2nc[nH]c2n1
inhibition [2]: 96.5%

COC(=O)c1cnc(Nc2cnc(C#N)cn2)cc1NCC1CCNCC1
inhibition [3]: 1%
inhibition [4]: 7.5%

CNCc1ccc(-c2ncnc3[nH]cnc23)cc1
inhibition [5]: 10%
inhibition [6]: 20.5%

NCCc1ccc(-c2ncnc3[nH]cnc23)cc1
inhibition [7]: 86.5%

NC1CCN(c2ncnc3[nH]ccc23)CC1
inhibition [8]: 13.5%
inhibition [9]: 6.5%
